Measurements reported in patent US7585523B2, “Composition and method to augment and sustain neurotransmitter production” (Targeted Medical Pharma, priority 2002, dated 2009).

How the values were obtained:
[1] = system: heart rate; experiment: Continuous heart rate recording, one individual, components on successive days; assay type: in vivo, human; conditions: baseline as reference, time point not given (5, 10, 15, 30 minutes recorded), caffeine 150 mg, tyrosine 50 mg, histadine 100 mg, Ginkgo Biloba 120 mg, choline 120 mg
Procedure: To test the components of example 14, a series of experiments were performed using a continuous heart rate recorder. In an individual on successive days, heart rate was recoded as RR intervals in msec. The individual sat quietly for 30 minutes as baseline. Then on day 1 the combination of caffeine, 150 mg, with tyrosine, 50 mg, histadine, 100 mg, Ginkgo Biloba, 120 mg, and choline 120 mg was given. […] A percent change was calculated with the baseline as reference. On Day 2 caffeine alone was ingested using the same protocol. […] On day 5, ginkgo biloba was ingested.

[2] = system: appetite; heart rate and heart rate variability; experiment: Shell's earlier studies of attenuation of precursor formulations; assay type: in vivo; conditions: Shell's studies dating to 1987
[3] = system: vasodilation of the skin (skin temperature); experiment: Skin temperature probe test of skin vasodilation; assay type: in vivo, human; conditions: single ingredient given alone
Excerpt: A person ingested the preparation designed to increase nitric oxide and acetylcholine in order to induce vasodilation (example 3). The preparation included choline, arginine, hawthorn berry, cocoa, dextrose, and cinnamon. A temperature probe designed to assess skin temperature measured vasodilation of the skin. The baseline skin temperature was 99 degrees Fahrenheit. Within fifteen minutes after ingestion of the capsules, the skin temperature increased to 101.3 degrees Fahrenheit and remained elevated for three hours. The next day arginine alone was given with no effect on skin temperature. The following day, choline alone was given with no effect on skin temperature. The preparation was given for two weeks when skin temperature was again measured. The skin temperature increased by two degrees and remained elevated for 60 minutes (FIG. 3).

[4] = system: heart rate; experiment: Continuous heart rate monitoring in 6 individuals, sustained effect; assay type: in vivo, human; conditions: baseline 0.0
Procedure: In 6 individuals, heart rate experiments were performed to show the sustained effect of the combination of the five elements outlined in this invention. […] They sat quietly for […] to establish a baseline. They then on subsequent days ingested combination of the 5 elements described in this invention. The results are depicted in table 2 and FIG. 5. Where C is caffeine 150 mg, T is tyrosine 50 mg, CH is choline 200 mg, and GB is ginkgo biloba 120 mg.

## N[C@@H](Cc1c[nH]cn1)C(=O)O [Histadine]
[1]
  percent change in heart rate: 0.2%

## N[C@@H](Cc1ccc(O)cc1)C(=O)O [Tyrosine]
[1]
  percent change in heart rate: 1%
[2]
  time until appetite suppression is lost: approximately 7 days

## C[N+](C)(C)CCO [Choline]
[3]
  effect on skin temperature: no effect
[1]
  percent change in heart rate: −4%

## N=C(N)NCCC[C@H](N)C(=O)O [arginine]
[3]
  effect on skin temperature: no effect

## Cn1c(=O)c2c(ncn2C)n(C)c1=O [Caffeine]
[1]
  percent change in heart rate: 3%
[4]; 5 min after ingestion
  heart rate, 5 min: 3.0
[4]; 15 min after ingestion
  heart rate, 15 min: 1.3
[4]; 30 min after ingestion
  heart rate, 30 min: 0.0
